The values below come from US9358305B2, “Targeted carriers for drug delivery across the gastrointestinal epithelium” (University of Maryland, College Park, priority 2009, dated 2016).

The test system of one data set is HUVEC. Briefly: Lysosomal transport of peptide-coated carriers in HUVEC. It is filed as cell-based, human. Conditions: for Binding, internalization and lysosomal transport of carriers: 37° C., co-localization with dextran-labeled lysosomes, carriers coated with the peptide. Here is the method:
(§1) (A) The peptide γ3 was absorbed on the surface of 100 nm FITC-labeled polystyrene carriers and the resulting products were incubated for 15 min on nitrocellulose-immobilized albumin vs human or mouse ICAM-1 chimeras containing ICAM-1-Ig domains 1 and 2 fused to human Fc sequence. The membranes were washed and analyzed by fluorescence microscopy to quantify the number of carriers bound per area. Data are expressed relative to non-specific binding of γ3 carriers to albumin controls (dotted line). A comparison to binding of anti-ICAM carriers is provided (dashed line). (B) Binding of FITC-labeled polystyrene carriers coated by absorption with the peptide γ3 and recombinant acid sphingomyelinase (ASM, a therapeutic enzyme) to activated HUVEC (bars) vs ICAM-1-negative 293 cells (dotted line) was quantified by fluorescence microscopy after 1 h incubation at 37° C., in the absence or presence of excess γ3, anti-ICAM, γ3 scramble peptide, or mannose 6 phosphate (M6P). Data is shown relative to HUVEC binding of γ3/ASM carriers (134±11 particles/cell). (C) HUVEC lysosomes were labeled for 2 h with Texas-red dextran at 37° C. Cells were then incubated for 30 min at 37° C. with FITC-labeled γ3/ASM carriers, non-bound carriers were washed, and incubation was continued up to 1, 2, or 3 h. Co-localization of FITC carriers with Texas-red dextran-lysosomes was quantified by fluorescence microscopy. (D) Comparison of lysosomal transport of 100 nm FITC-labeled polystyrene carriers coated with either ICAM-1-targeting peptide γ3 vs its derivatives 2γ3 and 3γ3. (E) Activated HUVEC were incubated for 30 min at 37° C. in the presence of FITC-labeled 2γ3 polystyrene carriers after 15 min pre-treatment with 3 mM amiloride to block ICAM-1-mediated endocytosis, or 0.1 μM PMA to activate PKC and promote ICAM-1-mediated endocytosis. Co-localization of FITC 2γ3 carriers with Texas red dextran-labeled lysosomes was assessed by microscopy 3 h post-internalization. Mean±SEM; n=2 assays. **p<0.005, ***p<0.001, by student's t test.

A further data set relates to ICAM-1 on HUVEC. Briefly: Leukocyte transmigration across TNF-activated HUVEC monolayer in transwell. As to conditions: compared to albumin, scrambled peptide and LB2 controls. It is filed as cell-based, human. Here is the method:
Human endothelial cells (human umbilical vein endothelial cells (HUVECs)) were grown until formation of a continuous confluent monolayer in a transwell filter located between upper and lower chambers. The cells were then treated with tumor necrosis factor alpha to mimic inflammatory activation of endothelial cells and SDF1a was added to the lower chamber to generate a gradient to attract white blood cells, as during inflammation. Lymphocytes isolated from human peripheral blood were activated with interleukin 2 and added to the upper chamber above endothelial cells in the absence (control) or presence of ICAM-1-targeting peptides A1, B7, B8, B9, B10, or D6. Albumin or a peptide of scrambled sequence were used as negative controls which should not block inflammatory transmigration of leukocytes across endothelial cells. The anti-ICAM antibody LB2, which is known to block leukocyte adhesion to ICAM-1, was used as a positive control which should block such transmigration.
Leukocytes which transmigrated to the lower chamber below endothelial cells were counted to assess their transmigration. FIG. 9 provides a graph of the resulting leukocyte transmigration as a percentage of the control. The peptides annotated with an asterisk in FIG. 9 indicate that the peptide was effective in statistically significant blockage of leukocyte transmigration across endothelial cells.

Data set [1] concerns the target T1, native ICAM-1 expressed by activated HUVEC (Homo sapiens, UniProt P05362).
T1 construct: endogenous in cells
Briefly: Binding of γ3/ASM carriers to activated HUVEC, with or without excess competitor. The data set is classed as cell-based. Conditions: 1 h, 37° C. Here is the method: as §1, with “Cells were then incubated for 30 min at 37° C. with FITC-labeled γ3/ASM carriers, non-bound carriers were washed, and incubation was continued up to 1, 2, or 3 h.” left out, “(D) Comparison of lysosomal transport of 100 nm FITC-labeled polystyrene carriers coated with either ICAM-1-targeting peptide γ3 vs its derivatives 2γ3 and 3γ3. (E) Activated HUVEC were incubated for 30 min at 37° C. in the presence of FITC-labeled 2γ3 polystyrene carriers after 15 min pre-treatment with 3 mM amiloride to block ICAM-1-mediated endocytosis, or 0.1 μM PMA to activate PKC and promote ICAM-1-mediated endocytosis.” left out, “Mean±SEM; n=2 assays. **p<0.005, ***p<0.001, by student's t test.” left out

The subject of another data set is Caco-2 monolayers. As to the kind of experiment: Transport of 125I-labelled carriers across Caco-2 monolayers on permeable inserts. It is filed as in vitro ADME, human. On the technique in general: Caco-2 monolayers are a common model of the intestinal barrier.
The target of data set [2] is T2, ICAM-1 in the vascular endothelium (Mus musculus, UniProt P13597).
T2 construct: from tissue
Briefly: Lodging of fibrin microemboli in the vasculature of mice. The data set is classed as in vivo. Here is the method: C57Bl/6 mice were first injected intravenously with γ3 to block ICAM-1 in the vascular endothelium in organs. Alternatively, injections of saline or anti-ICAM were used as controls. Fifteen minutes later the mice were injected with fibrin clots (microemboli around 3-5 micrometer) generated in the lab by established procedures.
Following microemboli administration, the microemboli amounts were measured in a gamma counter and calculated as percent of injected dose in circulation or localization ratio (the percent injected dose/gram in an organ divided by percent injected dose/gram in blood). FIG. 10(A) is a graphical illustration of the amount of microemboli in circulation in blood, as evaluated at 1 min after injection and FIG. 10(B) is a graphical illustration of the amount of microemboli lodging in the vasculature of the kidneys and spleen at 15 min after injection.

The test system of a further data set is mouse endothelial cells. Briefly: Endocytosis of peptide phages by mouse endothelial cells. The data set is classed as cell-based. As to conditions: for Internalization of phage viruses by endothelial cells: phages expressing 5 copies of the peptide, 37° C., 1 h. The source says: (§2) (A) ELISA measurement of the binding of 7-mer peptide expressing phage library to immobilized recombinant ICAM-1 (consisting of the two most membrane-distal Ig domains—1 and 2—of mouse ICAM-1 fused to human Fc or hFc), versus their binding to control hFc. (B) Relative specificity and (C) relative affinity of ICAM-1-targeting peptide phages, determined by ELISA from the experiment in (A). (D) Relative binding of phages expressing 7-mer peptides to native ICAM-1 expressed on the surface of HV5 mouse endothelial cells, either control or activated with TNFalpha to mimic a disease phenotype. Binding was determined by microscopy using a fluorescently-labeled antibody to the phage capsid. The line in the graph indicates the level of binding of A1 phage to 293 cells, which are voided of ICAM-1-expression. (E, F) Endocytosis (1 h, 37° C.) of phages expressing 7-mer peptides by control mouse endothelial cells (E) or mouse endothelial cells incubated in the presence of 3 mM amiloride (F) was estimated by microscopy after staining surface-located phages with a Texas red-labeled antibody to the viral capsid, following by cell permeabilization and staining of all (surface and internalized) phages using a FITC-labeled antibody to the viral capsid. (G) Binding of FITC-labeled anti-ICAM polystyrene nanocarriers to human endothelial cells was evaluated by fluorescence microscopy after incubation with cells in the absence (100% level) or presence of anti-ICAM antibody, ICAM-1-targeting synthetic peptides, or peptides with their scramble sequence (e.g., A1sc).

Another data set deals with Caco-2 cells. Briefly: Endocytosis of anti-ICAM carriers by Caco-2 cells. The data set is classed as cell-based, human. As to conditions: TNF-α-treated Caco-2, 1 h, 37° C. Here is the method:
Furthermore the ability of anti-ICAM carriers to be endocytosed by Caco-2 cells was examined. FITC-labeled anti-ICAM carriers were first incubated with cells for 30 min to allow binding, then non-bound carriers were washed and cells were incubated for varying times to allow carrier uptake. After cell fixation, surface-bound carriers were stained with Texas Red secondary antibody. […] Data are shown as means±S.E.M. (n≧20). […] Internalization was highly efficient: approximately 90% of the carriers bound to cells were internalized, which represents ˜60 carriers per cell.
The mechanism of uptake for Caco-2 cells treated with amiloride, a known inhibitor of CAM-mediated endocytosis (Muro et al., 2003), was examined. TNF-α-treated Caco-2 cells were incubated with FITC-labeled anti-ICAM carriers in the presence or absence of amiloride (1 h, 37° C.), and surface-bound carriers were stained with TxR goat anti-mouse. […] Upper panels of FIG. 14A show total carriers associated to cells, whereas lower panels show the fraction of surface-bound, non-internalized carriers. (Magnification bar=10 μm.) The fluorescence microscopy images were analyzed for the ratio of internalized carriers to surface-bound carriers, expressed as % internalization and normalized to the control. (FIG. 14B; Data are shown as means±S.E.M. (n≧20). *, p<0.001 by Student's t test.)

Data set [3] has as its target T3, ICAM-1 on human endothelial cells (Homo sapiens, UniProt P05362).
T3 construct: endogenous in cells
As to the kind of experiment: Competition of binding of anti-ICAM nanocarriers to human endothelial cells by synthetic peptides. The data set is classed as cell-based.
From the text: as §2

Ends that are not written are not given here.

T2 sequence (P13597 28-537): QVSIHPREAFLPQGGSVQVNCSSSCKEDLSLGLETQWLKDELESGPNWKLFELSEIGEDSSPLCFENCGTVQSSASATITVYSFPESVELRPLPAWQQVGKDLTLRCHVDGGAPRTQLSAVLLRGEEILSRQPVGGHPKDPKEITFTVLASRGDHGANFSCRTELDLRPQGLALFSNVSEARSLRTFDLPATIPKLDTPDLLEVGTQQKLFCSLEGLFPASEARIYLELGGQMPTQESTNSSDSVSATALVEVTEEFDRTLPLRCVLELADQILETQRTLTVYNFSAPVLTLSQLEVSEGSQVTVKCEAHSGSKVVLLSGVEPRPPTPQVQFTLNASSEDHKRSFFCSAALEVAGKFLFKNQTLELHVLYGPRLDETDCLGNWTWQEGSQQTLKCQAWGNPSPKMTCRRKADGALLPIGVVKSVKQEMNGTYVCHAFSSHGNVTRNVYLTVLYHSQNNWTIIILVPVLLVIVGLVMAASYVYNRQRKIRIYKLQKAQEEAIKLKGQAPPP
T1 sequence (P05362 28-532): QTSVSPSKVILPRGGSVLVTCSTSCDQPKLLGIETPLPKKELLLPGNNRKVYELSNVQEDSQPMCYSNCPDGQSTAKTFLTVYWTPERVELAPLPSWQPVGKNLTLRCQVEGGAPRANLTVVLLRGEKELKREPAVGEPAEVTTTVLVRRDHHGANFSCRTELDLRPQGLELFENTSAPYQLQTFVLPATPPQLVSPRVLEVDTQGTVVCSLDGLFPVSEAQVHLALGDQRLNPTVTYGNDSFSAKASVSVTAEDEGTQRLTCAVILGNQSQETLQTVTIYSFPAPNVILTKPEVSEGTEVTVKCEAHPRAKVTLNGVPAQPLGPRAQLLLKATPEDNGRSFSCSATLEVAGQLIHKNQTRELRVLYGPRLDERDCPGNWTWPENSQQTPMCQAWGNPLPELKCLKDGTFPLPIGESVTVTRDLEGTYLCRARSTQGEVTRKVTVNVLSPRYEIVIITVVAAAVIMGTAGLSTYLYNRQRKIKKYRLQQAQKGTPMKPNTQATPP
T3 sequence (P05362 28-532): as above

With “NNQKIVNIKEKVAQIEA (fibrinogen-derived 2-gamma-3) [2γ3]”, in the data set with HUVEC, the “Binding, internalization and lysosomal transport of carriers” value is recorded as “similar”. Turning to “GCKLCAQ (phage display-derived peptide D6) [also tested as phage clone]”, the “Leukocyte transmigration across endothelial cells” value in the data set with ICAM-1 on HUVEC is recorded as “inhibit leukocyte transmigration”. As to “NNQKLVNIKEKVAQIEA (fibrinogen-derived 3-gamma-3) [3γ3]”, the “Binding, internalization and lysosomal transport of carriers” value with HUVEC is “similar”. Consider `O=C[C@@H](O)[C@@H](O)[C@H](O)[C@H](O)COP(=O)(O)O` [mannose-6-phosphate, reference compound], for which the “Effect of excess free competitor in the media on targeting of γ3/ASM carriers to endothelial cells” value in data set [1] is “did not compete”. In the data set on Caco-2 monolayers (Caco-2), “^125I-albumin: radiolabelled bovine serum albumin, standard for passive transport” yielded an apparent permeability from apical to basolateral (Papp A→B) of 0.03 ± 20000 ×10⁻⁶ cm/s.

Consider “NNQKIVNLKEKVAQLEA (fibrinogen-derived gamma-3) [γ3]”, for which the “Fibrin microemboli in circulation” value in data set [2] (1 min after microemboli injection) is on record as “remain in circulation”. The “Microemboli lodging in organs” value in data set [2] (kidneys and spleen, 15 min after injection) is recorded as “attenuating microemboli lodging in organs”. Further, the “Effect of excess free competitor in the media on targeting of γ3/ASM carriers to endothelial cells” value in data set [1] is reported as “suppressed”. With `N=C(N)NC(=O)c1nc(Cl)c(N)nc1N` [amiloride, reference compound], in the data set on HUVEC (3 mM amiloride or 0.1 μM PMA pre-treatment), the “Effect of modulator on endocytic transport of peptide carriers” value is recorded as “inhibited”. In the data set on mouse endothelial cells (Mus musculus, Endothelial cell, phages A1, B7, B9, D6, 3 mM amiloride, read-out: Inhibition of phage internalization by amiloride), the inhibition at 3000 µM lay in the range of 41 to 59%. Further, in the data set with Caco-2 cells, the “Uptake of anti-ICAM carriers in presence of amiloride” value is recorded as 20 % of the control value. In the data set with Caco-2 monolayers (3 h), the “Reduction of transport of 125I-anti-ICAM carriers by amiloride” value is “about 50%”. For “YPFLPTA (phage display-derived peptide B10) [also tested as phage clone]”, the “Internalization of phage viruses by endothelial cells” value with mouse endothelial cells is recorded as “not”. For the same compound, in the data set on ICAM-1 on HUVEC, the “Leukocyte transmigration across endothelial cells” value is on record as “inhibit leukocyte transmigration”.

Regarding “YQATPLP (phage display-derived peptide B7) [also tested as phage clone]”, the “Leukocyte transmigration across endothelial cells” value in the data set with ICAM-1 on HUVEC is given as “inhibit leukocyte transmigration”. Take GSLLSAA [B8, GSLLSAA]: the “Inhibition of binding of anti-ICAM nanocarriers to human endothelial cells” value in data set [3] is given as “at some extent”. Also, the “Internalization of phage viruses by endothelial cells” value with mouse endothelial cells is recorded as “not”. Besides, in the data set on ICAM-1 on HUVEC, the “Leukocyte transmigration across endothelial cells” value was “inhibit leukocyte transmigration”. Take “FSPHSRT (phage display-derived peptide B9) [also tested as phage clone]”: in data set [3], the “Inhibition of binding of anti-ICAM nanocarriers to human endothelial cells” value was around 80 % inhibition. Also, in the data set on ICAM-1 on HUVEC, the “Leukocyte transmigration across endothelial cells” value is on record as “inhibit leukocyte transmigration”.

In general, Papp A→B refers to the apparent permeability from the apical to the basolateral side of a cell layer. A higher Papp A→B goes with fast passage. The term inhibition denotes the change of the read-out against control, counted positive when it falls.
